The structures appear in SMILES notation. Read-outs that look alike come from different tables or passages of the source.

Common to all, as to assay: Glasshouse assay for herbicidal activity (pre- and post-emergence), percentage phytotoxicity
Type in all cases: in vivo

Test [1] deals with Lolium perenne (LOLPE). Particulars: Lolium perenne. The essentials:
(§1)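 Seeds were sown in standard soil in pots and grown one day (pre-emergence) or about 12 days (post-emergence) before herbicide application. Plants were kept at 24/18 °C (warm-climate) or 20/16 °C (cool-climate) day/night, 16 h light, 65% humidity, watered twice daily, and damage was scored visually at 15 DAA (POST) or 20 DAA (PRE).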

For test [2], the system named is Avena fatua (AVEFA). Particulars: Avena fatua. The essentials: as §1
In test [3] the test system is Alopecurus myosuroides (ALOMY). The settings on record: Alopecurus myosuroides. The gist of the method:
as §1

The subject of test [4] is Echinochloa crus-galli (ECHCG). The settings on record: Echinochloa crus-galli. The essentials:
as §1

Where [5] appears, read: post-emergence, 360 h, POST-emergence, rate 250 g/ha, visual score 15 DAA (100%=total damage, 0%=no damage), read-out: Post-emergence herbicidal activity (percentage phytotoxicity) LOLPE POST.
Setting [6] is: pre-emergence, 480 h, PRE-emergence, rate 250 g/ha, visual score 20 DAA (100%=total damage, 0%=no damage), read-out: Pre-emergence herbicidal activity (percentage phytotoxicity) LOLPE PRE.
[7] abbreviates: post-emergence, 360 h, POST-emergence, rate 250 g/ha, visual score 15 DAA (100%=total damage, 0%=no damage), read-out: Post-emergence herbicidal activity (percentage phytotoxicity) AVEFA POST.
[8] abbreviates: pre-emergence, 480 h, PRE-emergence, rate 250 g/ha, visual score 20 DAA (100%=total damage, 0%=no damage), read-out: Pre-emergence herbicidal activity (percentage phytotoxicity) AVEFA PRE.
Setting [9] is: post-emergence, 360 h, POST-emergence, rate 250 g/ha, visual score 15 DAA (100%=total damage, 0%=no damage), read-out: Post-emergence herbicidal activity (percentage phytotoxicity) ALOMY POST.
Setting [10] is: pre-emergence, 480 h, PRE-emergence, rate 250 g/ha, visual score 20 DAA (100%=total damage, 0%=no damage), read-out: Pre-emergence herbicidal activity (percentage phytotoxicity) ALOMY PRE.
[11] abbreviates: post-emergence, 360 h, POST-emergence, rate 250 g/ha, visual score 15 DAA (100%=total damage, 0%=no damage), read-out: Post-emergence herbicidal activity (percentage phytotoxicity) ECHCG POST.
Setting [12] is: pre-emergence, 480 h, PRE-emergence, rate 250 g/ha, visual score 20 DAA (100%=total damage, 0%=no damage), read-out: Pre-emergence herbicidal activity (percentage phytotoxicity) ECHCG PRE.
[13] abbreviates: post-emergence, 360 h, Rate 250 g/ha, post-emergence, assessed visually 15 DAA, 100%=total damage, 0%=no damage, read-out: Post-emergence herbicidal activity (percentage phytotoxicity) LOLPE POST.
Where [14] appears, read: pre-emergence, 480 h, Rate 250 g/ha, pre-emergence, assessed visually 20 DAA, 100%=total damage, 0%=no damage, read-out: Pre-emergence herbicidal activity (percentage phytotoxicity) LOLPE PRE.
Setting [15] is: post-emergence, 360 h, Rate 250 g/ha, post-emergence, assessed visually 15 DAA, 100%=total damage, 0%=no damage, read-out: Post-emergence herbicidal activity (percentage phytotoxicity) AVEFA POST.
The mark [16] stands for this setting: pre-emergence, 480 h, Rate 250 g/ha, pre-emergence, assessed visually 20 DAA, 100%=total damage, 0%=no damage, read-out: Pre-emergence herbicidal activity (percentage phytotoxicity) AVEFA PRE.
Setting [17] is: post-emergence, 360 h, Rate 250 g/ha, post-emergence, assessed visually 15 DAA, 100%=total damage, 0%=no damage, read-out: Post-emergence herbicidal activity (percentage phytotoxicity) ALOMY POST.
Where [18] appears, read: pre-emergence, 480 h, Rate 250 g/ha, pre-emergence, assessed visually 20 DAA, 100%=total damage, 0%=no damage, read-out: Pre-emergence herbicidal activity (percentage phytotoxicity) ALOMY PRE.
Setting [19] is: post-emergence, 360 h, Rate 250 g/ha, post-emergence, assessed visually 15 DAA, 100%=total damage, 0%=no damage, read-out: Post-emergence herbicidal activity (percentage phytotoxicity) ECHCG POST.
Setting [20] is: pre-emergence, 480 h, Rate 250 g/ha, pre-emergence, assessed visually 20 DAA, 100%=total damage, 0%=no damage, read-out: Pre-emergence herbicidal activity (percentage phytotoxicity) ECHCG PRE.

In the case of `CCc1cc(C)cc(C)c1C1C(=O)CC(CC(=O)NC(C)(C)C)C1=O` (stereo not drawn) [Compound B170], the pest or weed control at 250 g/ha in test [1] (setting [5]) is 100%; in test [1] (setting [6]), 100%; in test [2] (setting [7]) it was 90%; in test [2] (setting [8]) it was 90%; in test [3] (setting [9]) it was 100%; in test [3] (setting [10]), 100%. Also, the pest or weed control at 250 g/ha in test [4] (setting [11]) and in test [4] (setting [12]) was 100% in each case.

Take `CC#Cc1cc(C)c(C2C(=O)CC(CC(=O)NCCC(F)(F)F)C2=O)c(C)c1` (stereo not drawn) [Compound A58]: the pest or weed control at 250 g/ha in test [1] (setting [13]) amounted to 90%; in test [1] (setting [14]) it was 90%; in test [2] (setting [15]) it was 100%; in test [2] (setting [16]), 100%; in test [3] (setting [17]) it was 100%; in test [3] (setting [18]), 100%. Also, the pest or weed control at 250 g/ha in test [4] (setting [19]) and in test [4] (setting [20]) was 100% in each case.

As for `Cc1cc(-n2cc(Cl)cn2)cc(C)c1C1C(=O)CC(CC(=O)NCc2cccc(F)c2)C1=O` (stereo not drawn) [Compound B223], the pest or weed control at 250 g/ha in test [1] (setting [5]) is 80%; in test [1] (setting [6]) it was 80%; in test [2] (setting [7]), 100%; in test [2] (setting [8]), 70%; in test [3] (setting [9]), 90%; in test [3] (setting [10]), 90%. The pest or weed control at 250 g/ha amounted to 100% in test [4] (setting [11]) and 90% in test [4] (setting [12]).

Turning to `C#Cc1ccc(CNC(=O)CC2CC(=O)C(c3c(C)cc(C)cc3C)C2=O)cc1` (stereo not drawn) [Compound B34], the pest or weed control at 250 g/ha in test [1] (post-emergence, 360 h, 250 g/ha, post-emergence, 15 DAA, visual assessment (100%=total damage, 0%=no damage), read-out: Post-emergence herbicidal activity (percentage phytotoxicity) LOLPE POST) came to 80%; in test [1] (pre-emergence, 480 h, 250 g/ha, pre-emergence, 20 DAA, visual assessment (100%=total damage, 0%=no damage), read-out: Pre-emergence herbicidal activity (percentage phytotoxicity) LOLPE PRE) it was 90%; in test [2] (post-emergence, 360 h, 250 g/ha, post-emergence, 15 DAA, visual assessment (100%=total damage, 0%=no damage), read-out: Post-emergence herbicidal activity (percentage phytotoxicity) AVEFA POST), 90%; in test [2] (pre-emergence, 480 h, 250 g/ha, pre-emergence, 20 DAA, visual assessment (100%=total damage, 0%=no damage), read-out: Pre-emergence herbicidal activity (percentage phytotoxicity) AVEFA PRE), 80%; in test [3] (post-emergence, 360 h, 250 g/ha, post-emergence, 15 DAA, visual assessment (100%=total damage, 0%=no damage), read-out: Post-emergence herbicidal activity (percentage phytotoxicity) ALOMY POST), 60%; in test [3] (pre-emergence, 480 h, 250 g/ha, pre-emergence, 20 DAA, visual assessment (100%=total damage, 0%=no damage), read-out: Pre-emergence herbicidal activity (percentage phytotoxicity) ALOMY PRE), 70%. In addition, the pest or weed control at 250 g/ha in test [4] (post-emergence, 360 h, 250 g/ha, post-emergence, 15 DAA, visual assessment (100%=total damage, 0%=no damage), read-out: Post-emergence herbicidal activity (percentage phytotoxicity) ECHCG POST) worked out at 100%; in test [4] (pre-emergence, 480 h, 250 g/ha, pre-emergence, 20 DAA, visual assessment (100%=total damage, 0%=no damage), read-out: Pre-emergence herbicidal activity (percentage phytotoxicity) ECHCG PRE), 100%.

For the compound `Cc1cc(-c2ncc(Cl)cc2F)cc(C)c1C1C(=O)CC(CC(=O)NC(C)c2ccc(F)cc2)C1=O` (stereo not drawn) [Compound A124], the pest or weed control at 250 g/ha in test [1] (setting [13]) amounted to 100%; in test [1] (setting [14]) it was 90%; in test [2] (setting [15]), 100%; in test [2] (setting [16]), 80%; in test [3] (setting [17]), 90%; in test [3] (setting [18]) it was 70%. Further, the values for the pest or weed control at 250 g/ha in test [4] (setting [19]) and in test [4] (setting [20]) were 100% and 90%, respectively.

In the case of `C/C=C/c1cc(C)c(C2C(=O)CC(CC(=O)NCc3ccccc3)C2=O)c(CC)c1` (stereo not drawn) [Compound B190], the pest or weed control at 250 g/ha in test [1] (setting [5]) was determined as 80%; in test [1] (setting [6]), 70%; in test [2] (setting [7]), 90%; in test [2] (setting [8]), 40%; in test [3] (setting [9]) it was 70%; in test [3] (setting [10]) it was 60%. Also, the pest or weed control at 250 g/ha came out at 100% in test [4] (setting [11]) and 80% in test [4] (setting [12]).

With `Cc1cc(-c2ccc(F)cn2)cc(C)c1C1C(=O)CC(CC(=O)NCc2cccc(Br)c2)C1=O` (stereo not drawn) [Compound B384], the pest or weed control at 250 g/ha in test [1] (post-emergence, 360 h, Rate 250 g/ha, post-emergence, visual assessment 15 DAA, 100%=total damage, 0%=no damage, read-out: Post-emergence herbicidal activity (percentage phytotoxicity) LOLPE POST) turned out to be 90%; in test [1] (pre-emergence, 480 h, Rate 250 g/ha, pre-emergence, visual assessment 20 DAA, 100%=total damage, 0%=no damage, read-out: Pre-emergence herbicidal activity (percentage phytotoxicity) LOLPE PRE) it was 80%; in test [2] (post-emergence, 360 h, Rate 250 g/ha, post-emergence, visual assessment 15 DAA, 100%=total damage, 0%=no damage, read-out: Post-emergence herbicidal activity (percentage phytotoxicity) AVEFA POST), 100%; in test [2] (pre-emergence, 480 h, Rate 250 g/ha, pre-emergence, visual assessment 20 DAA, 100%=total damage, 0%=no damage, read-out: Pre-emergence herbicidal activity (percentage phytotoxicity) AVEFA PRE) it was 80%; in test [3] (post-emergence, 360 h, Rate 250 g/ha, post-emergence, visual assessment 15 DAA, 100%=total damage, 0%=no damage, read-out: Post-emergence herbicidal activity (percentage phytotoxicity) ALOMY POST) it was 90%; in test [3] (pre-emergence, 480 h, Rate 250 g/ha, pre-emergence, visual assessment 20 DAA, 100%=total damage, 0%=no damage, read-out: Pre-emergence herbicidal activity (percentage phytotoxicity) ALOMY PRE), 80%. Besides, the pest or weed control at 250 g/ha in test [4] (post-emergence, 360 h, Rate 250 g/ha, post-emergence, visual assessment 15 DAA, 100%=total damage, 0%=no damage, read-out: Post-emergence herbicidal activity (percentage phytotoxicity) ECHCG POST) is 40%; in test [4] (pre-emergence, 480 h, Rate 250 g/ha, pre-emergence, visual assessment 20 DAA, 100%=total damage, 0%=no damage, read-out: Pre-emergence herbicidal activity (percentage phytotoxicity) ECHCG PRE) it was 90%.

With `Cc1cc(C)c(C2C(=O)CC(CC(=O)NCc3nc4ccccc4s3)C2=O)c(C)c1` (stereo not drawn) [Compound A100], the pest or weed control at 250 g/ha in test [1] (setting [13]) came out at 70%; in test [1] (setting [14]) it was 80%; in test [2] (setting [15]) it was 0%; in test [2] (setting [16]), 0%; in test [3] (setting [17]), 70%; in test [3] (setting [18]) it was 90%. In addition, the pest or weed control at 250 g/ha in test [4] (setting [19]) and in test [4] (setting [20]) was 20% throughout.

As for `CCc1cc(C)cc(C)c1C1C(=O)CC(CC(=O)N(C)C(C)(C)C)C1=O` (stereo not drawn) [Compound B259], the pest or weed control at 250 g/ha was 100% in test [1] (setting [5]); 100% in test [1] (setting [6]); 100% in test [2] (setting [7]); 90% in test [2] (setting [8]); 100% in test [3] (setting [9]); 100% in test [3] (setting [10]). Besides, the pest or weed control at 250 g/ha in test [4] (setting [11]) and in test [4] (setting [12]) was 100% in each case.

The values are drawn from patent US10206394B2, “Herbicidal compounds” (Syngenta Participations AG, priority 2014, dated 2019).
